Laboratory results taken from PubChem BioAssay AID624167 (Sanford-Burnham Center for Chemical Genomics, 2012).
pIC50: −log10 of the molar value. Activity calls are given as the source filed them.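 The calls were made as follows: active = mean IC50 for reducing PEG3 promoter reporter signal at or below a set limit, with IC50 above the limit in both counter screens; inactive = the rest, including counter screen hits.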

How the values were obtained:
Rat fibroblasts (CREF) = experiment: inhibition of PEG-3 promoter-driven reporter – cell-based, HeLa, luciferase, CREF/GAPDH counter-screen panel, dose response (AID 624167); conditions: CREF/GAPDH counter-screens
[1] = as above; conditions: CREF/GAPDH counter-screens; GAPDH; mean of runs
PEG-3 [2] = experiment: as above; conditions: HeLa PEG-Prom luciferase reporter, overnight, CREF/GAPDH counter-screens
PEG-3 [3] = molecular target: PEG-3 (UniProt Q6IN02); experiment: as above; conditions: HeLa PEG-Prom luciferase reporter, overnight, CREF/GAPDH counter-screens, mean of runs
Chain of PEG-3 (UniProt Q6IN02) (Q6IN02 whole entry, looked up): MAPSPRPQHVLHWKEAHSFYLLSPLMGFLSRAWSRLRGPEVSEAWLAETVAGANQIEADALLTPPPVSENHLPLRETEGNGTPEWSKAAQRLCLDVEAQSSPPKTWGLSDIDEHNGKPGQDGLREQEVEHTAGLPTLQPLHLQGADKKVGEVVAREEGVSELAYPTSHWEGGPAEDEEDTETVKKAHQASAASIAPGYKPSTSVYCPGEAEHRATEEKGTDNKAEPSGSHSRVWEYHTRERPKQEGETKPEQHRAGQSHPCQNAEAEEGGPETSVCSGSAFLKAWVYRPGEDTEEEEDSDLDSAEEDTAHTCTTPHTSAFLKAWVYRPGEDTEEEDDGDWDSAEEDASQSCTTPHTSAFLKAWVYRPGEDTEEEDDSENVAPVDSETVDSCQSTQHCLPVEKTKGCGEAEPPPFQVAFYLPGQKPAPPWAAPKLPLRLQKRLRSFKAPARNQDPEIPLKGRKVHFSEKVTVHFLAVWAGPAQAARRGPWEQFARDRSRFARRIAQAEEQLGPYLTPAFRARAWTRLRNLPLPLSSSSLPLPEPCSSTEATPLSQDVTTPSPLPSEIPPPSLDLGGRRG

GAPDH = experiment: as above; conditions: CREF/GAPDH counter-screens
[4] = run 1, dose range 1, individual replicate IC50 per panel
[5] = run 2, dose range 1, individual replicate IC50 per panel

| Structure (SMILES) | IC50 (Rat fibroblasts (CREF); mean of runs) | pIC50 (Rat fibroblasts (CREF); [4]) | pIC50 (Rat fibroblasts (CREF); [5]) | IC50 [1] | pIC50 (PEG-3 [2]; [4]) | pIC50 (PEG-3 [2]; [5]) | IC50 (PEG-3 [3]) | pIC50 (GAPDH; [4]) | pIC50 (GAPDH; [5]) | pIC50 [1] | pIC50 (PEG-3 [3]) | pIC50 (Rat fibroblasts (CREF); mean of runs) |
| --- | --- | --- | --- | --- | --- | --- | --- | --- | --- | --- | --- | --- |
| O=C(Nc1ccccc1)c1nc[nH]c1C(=O)NCCCCCCNC(=O)c1[nH]cnc1C(=O)Nc1ccccc1 | > 100 µM (inactive) | < 4.00 | < 4.00 | inactive | 5.62 | < 4.00 | inactive | < 4.00 | 4.79 |  |  |  |
| Cc1cc(C(=O)Nc2cccc(C(=O)O)c2)oc1C | > 100 µM (inactive) | < 4.00 | < 4.00 |  | 5.17 | 4.95 |  | 5.18 | 4.80 | 4.95 | 5.05 |  |
| CCc1ccn2cc(-c3ccc4c(c3)OCO4)nc2c1 | 50.4 µM (inactive) | 6.13 | < 4.00 |  | 5.71 | 4.91 |  | 5.43 | 5.05 | 5.20 | 5.14 |  |
| Cc1ccc(-n2c(N)c(C(=O)Nc3c(C)n(C)n(-c4ccccc4)c3=O)c3nc4ccccc4nc32)cc1 |  | 4.43 | 4.31 |  | 5.01 | 5.28 |  | 4.58 | 4.54 | 4.56 | 5.12 | 4.36 |
| CCN(CC)S(=O)(=O)c1cccc(C(=O)N/N=C(\C)c2ccc(O)cc2O)c1 | 74.1 µM (inactive) | < 4.00 | 4.32 | > 100 µM (inactive) | 5.56 | 5.88 |  | < 4.00 | < 4.00 |  | 5.69 |  |
| COc1ccc(-n2c(O)c(/C=N/Nc3nc(C)cc(C)n3)c3ccccc3c2=O)cc1OC | 50.9 µM (inactive) | 4.35 | 4.24 | > 100 µM (inactive) | 5.57 | 5.14 |  | < 4.00 | < 4.00 |  | 5.30 |  |
| CCCCCCCn1c(=N)n(CC(=O)c2ccco2)c2ccccc21 |  | 4.53 | 4.49 | inactive | 6.40 | < 4.00 | inactive | 4.57 | 4.46 |  |  | 4.51 |
| CC(=O)c1ccc(-c2cnc3c(NC=O)cc(-c4ccccc4Oc4ccccc4)cn23)cc1 | 54.5 µM (inactive) | < 4.00 | 5.05 | inactive | 5.26 | 5.05 |  | 4.04 | < 4.00 |  | 5.14 |  |
| CC(=O)NC(c1ccc(Cl)cc1)c1ccc2cccnc2c1O (configuration not stated) | > 100 µM (inactive) | < 4.00 | < 4.00 | inactive | 5.83 | 5.69 |  | 4.23 | 4.25 |  | 5.76 |  |
| CCCCC(=O)NC(c1ccc(OC)cc1)c1ccc2cccnc2c1O (configuration not stated) | > 100 µM (inactive) | < 4.00 | < 4.00 | > 100 µM (inactive) | 5.09 | 5.10 |  | < 4.00 | < 4.00 |  | 5.10 |  |
| CCCC(=O)NC(c1ccc(Cl)cc1)c1ccc2cccnc2c1O (configuration not stated) | > 100 µM (inactive) | < 4.00 | < 4.00 | inactive | 5.64 | 5.37 |  | 4.56 | 4.23 |  | 5.48 |  |
| CC(=O)NC(c1ccc(Cl)cc1Cl)c1ccc2cccnc2c1O (configuration not stated) | > 100 µM (inactive) | < 4.00 | < 4.00 | inactive | 6.07 | 5.57 |  | 4.50 | 4.21 |  | 5.75 |  |
| CS(=O)(=O)c1ccc(-c2sc3ccccc3c2C#CCCO)cc1 |  | 4.56 | 4.43 |  | 4.85 | 6.24 |  | 4.52 | 4.56 | 4.54 | 5.13 | 4.49 |
| C=CCn1c(COc2ccccc2)nnc1SC(C)C(=O)N/N=C/c1cc(Cl)ccc1O (configuration not stated) | > 100 µM (inactive) | < 4.00 | < 4.00 | > 100 µM (inactive) | 5.29 | 5.46 |  | < 4.00 | < 4.00 |  | 5.37 |  |
| CC(=O)c1cccc(-c2ccnc3c2CC(C(=O)Nc2cccc(NS(C)(=O)=O)c2)O3)c1 (configuration not stated) | > 100 µM (inactive) | < 4.00 | < 4.00 | inactive | 5.18 | 5.33 |  | < 4.00 | 4.04 |  | 5.25 |  |
| OCCCNc1nccc(-c2cc(Nc3cccc(Cl)c3)ncn2)n1 | 59.6 µM (inactive) | 4.72 | < 4.00 | inactive | 6.18 | 6.48 |  | < 4.00 | 6.04 |  | 6.30 |  |
| Cc1cc(C)c(C)c(S(=O)(=O)N2CCN(C(=O)c3cc(=O)[nH]c4ccccc34)CC2)c1C | 55.2 µM (inactive) | < 4.00 | 4.99 | inactive | 4.87 | 5.30 |  | 4.60 | 4.43 |  | 5.03 |  |
| O=C(NNC(=O)c1cccnc1SCc1cccc([N+](=O)[O-])c1)c1ccccn1 |  | 5.25 | 4.24 | > 100 µM (inactive) | 5.56 | 5.35 |  | < 4.00 | < 4.00 |  | 5.44 | 4.50 |
| O=C(N/N=C\c1c(O)ccc2ccccc12)c1ccc(Cn2cccn2)o1 | > 100 µM (inactive) | < 4.00 | < 4.00 | > 100 µM (inactive) | 5.51 | 5.03 |  | < 4.00 | < 4.00 |  | 5.21 |  |
| Cc1cc(C)c2sc(NNC(=O)c3ccc(S(=O)(=O)N4CCc5ccccc5C4)cc3)nc2c1 | > 100 µM (inactive) | < 4.00 | < 4.00 |  | 6.03 | 5.69 |  | 4.98 | 4.50 | 4.68 | 5.83 |  |
| COc1cccc(/C=N/NC(=O)c2c(C)nc3ccc(Cl)cn23)c1O | 69.6 µM (inactive) | < 4.00 | 4.41 | > 100 µM (inactive) | 6.00 | 6.29 |  | < 4.00 | < 4.00 |  | 6.12 |  |
| Cc1oc(-c2ccc3c(c2)OCCO3)cc1C(=O)O |  | 4.51 | 4.43 |  | 5.51 | 5.32 |  | 5.39 | 5.20 | 5.29 | 5.41 | 4.47 |
| CC(C)CCCCCCCCCCCCC(=O)NCC(=O)NC1C(O)C(O)C(Nc2ncnc3nc[nH]c23)OC1C(O)CO (configuration not stated) | 50.1 µM (inactive) | > 6.70 | < 4.00 |  | 5.46 | > 6.70 |  | > 6.70 | > 6.70 | > 6.70 | 5.74 |  |
